From patent publication US20060264388A1, “Method for treating liver cancer by intrahepatic administration of nemorubicin” (priority 2003, published 2006)

Tests used:
[1] = test system: liver metastases in colorectal and renal cancer patients; conditions: i.v., cited from earlier work
[2] = test system: patients with liver cancer; assay: Hematological toxicity - Leucocytes, worst CTC Grade by cycle, intrahepatic artery nemorubicin q8wk vs q6wk; assay type: in vivo, human
Protocol: (§1) The objective of the study was to shorten the time interval between treatment administrations from every 8 weeks (q8wk) of the protocol as reported in WO 00/15203 to every 6 weeks (q6wk). This was done in the attempt of improving the therapeutic potential of nemorubicin treatment through an increase of the dose intensity of the therapy, simultaneously safeguarding patient safety.
(§2) Overall, 13 patients were treated with the q8wk schedule (total 25 cycles administered; doses ranged from 200 to 800 mcg/m^2), and 11 patients were treated with the q6wk schedule (total 32 cycles administered; doses were 200 and 600 mcg/m^2).
(§3) The NCI-Common Tosicity Criteria grading system (CTC Grade), Version 2.0, was used to report toxicities.
(§4) A slight cumulative effect (i.e., increase in frequency but not in severity) was observed after repeated cycles for leucopenia and neutropenia (Tables 2 and 3), mainly with the q8wk schedule.

[3] = test system: murine leukemias, solid murine and human tumor models; conditions: cited from earlier work
[4] = test system: tumor cells resistant to anthracyclines and presenting the mdr phenotype; conditions: cited from earlier work
[5] = test system: tumor cells resistant to L-PAM or cDDP, or cells resistant to Topoisomerase II inhibitors (at-mdr); conditions: cited from earlier work
human liver tumor = assay: Efficacy: tumor response, intrahepatic artery nemorubicin q8wk vs q6wk; assay type: in vivo
Protocol: as §1, §2

[6] = test system: patients with liver cancer; assay: Hematological toxicity - Platelets, worst CTC Grade by cycle, intrahepatic artery nemorubicin q8wk vs q6wk; assay type: in vivo, human
Protocol: as §1, §2, §3, §4

[7] = 200 mcg/m^2 q6wk, All cycles, 11 evaluable cycles
[8] = 200 mcg/m^2 q6wk, Cycle 1, 5 evaluable cycles
[9] = 200 mcg/m^2 q6wk, Cycles > 1, 6 evaluable cycles
[10] = 200 mcg/m^2 q8wk, All cycles, 5 evaluable cycles
[11] = 200 mcg/m^2 q8wk, Cycle 1, 3 evaluable cycles
[12] = 200 mcg/m^2 q8wk, Cycles > 1, 2 evaluable cycles
[13] = 400 mcg/m^2 q8wk, All cycles, 4 evaluable cycles
[14] = 400 mcg/m^2 q8wk, Cycle 1, 3 evaluable cycles
[15] = 600 mcg/m^2 q6wk, All cycles, 18 evaluable cycles
[16] = 600 mcg/m^2 q6wk, Cycle 1, 6 evaluable cycles
[17] = 600 mcg/m^2 q6wk, Cycles > 1, 12 evaluable cycles
[18] = 600 mcg/m^2 q8wk, All cycles, 8 evaluable cycles
[19] = 600 mcg/m^2 q8wk, Cycle 1, 4 evaluable cycles
[20] = 600 mcg/m^2 q8wk, Cycles > 1, 4 evaluable cycles
[21] = 800 mcg/m^2 q8wk, All cycles, 4 evaluable cycles
[22] = 800 mcg/m^2 q8wk, Cycle 1, 3 evaluable cycles
[23] = 800 mcg/m^2 q8wk, Cycles > 1, 1 evaluable cycle

Question: What does the source list for `COc1cccc2c1C(=O)c1c(O)c3c(c(O)c1C2=O)C[C@@](O)(C(=O)CO)C[C@@H]3O[C@H]1C[C@H](N2CCO[C@H](OC)C2)[C@H](O)[C@H](C)O1.Cl` [nemorubicin, 3′desamino-3′[2(S)methoxy-4-morpholinyl]doxorubicin-hydrochloride]?
Answer: principle toxicities [1]: nausea and vomiting (requiring intravenous antiemetic treatment), myelosuppression and transient elevations in transaminases; antitumor effect observed ([1]; tumor shrinkage at doses of 1250 and 1500 mcg/m^2, 197 patients): regressions of liver metastases were repeatedly observed; Leucocytes, worst CTC Grade by cycle: All Grades (%) [2, 7]: 4 (36%) (%); Leucocytes, worst CTC Grade by cycle: Grade 1-2 (%) [2, 7]: 3 (27%) (%); Leucocytes, worst CTC Grade by cycle: All Grades (%) [2, 8]: 1 (20%) (%); Leucocytes, worst CTC Grade by cycle: All Grades (%) [2, 9]: 3 (50%) (%); Leucocytes, worst CTC Grade by cycle: Grade 1-2 (%) [2, 9]: 3 (50%) (%); Leucocytes, worst CTC Grade by cycle: All Grades (%) [2, 10]: 4 (80%) (%); Leucocytes, worst CTC Grade by cycle: Grade 1-2 (%) [2, 10]: 4 (80%) (%); Leucocytes, worst CTC Grade by cycle: All Grades (%) [2, 11]: 2 (67%) (%); Leucocytes, worst CTC Grade by cycle: Grade 1-2 (%) [2, 11]: 2 (67%) (%); Leucocytes, worst CTC Grade by cycle: All Grades (%) [2, 12]: 2 (100%) (%); Leucocytes, worst CTC Grade by cycle: Grade 1-2 (%) [2, 12]: 2 (100%) (%); Leucocytes, worst CTC Grade by cycle: All Grades (%) [2, 13]: 1 (25%) (%); Leucocytes, worst CTC Grade by cycle: Grade 1-2 (%) [2, 13]: 1 (25%) (%); Leucocytes, worst CTC Grade by cycle: All Grades (%) [2, 14]: 1 (33%) (%); Leucocytes, worst CTC Grade by cycle: Grade 1-2 (%) [2, 14]: 1 (33%) (%); Leucocytes, worst CTC Grade by cycle: All Grades (%) [2, 15]: 8 (44%) (%); Leucocytes, worst CTC Grade by cycle: Grade 1-2 (%) [2, 15]: 8 (44%) (%); Leucocytes, worst CTC Grade by cycle: All Grades (%) [2, 16]: 2 (33%) (%); Leucocytes, worst CTC Grade by cycle: Grade 1-2 (%) [2, 16]: 2 (33%) (%); Leucocytes, worst CTC Grade by cycle: All Grades (%) [2, 17]: 6 (50%) (%); Leucocytes, worst CTC Grade by cycle: Grade 1-2 (%) [2, 17]: 6 (50%) (%); Leucocytes, worst CTC Grade by cycle: All Grades (%) [2, 18]: 7 (87%) (%); Leucocytes, worst CTC Grade by cycle: Grade 1-2 (%) [2, 18]: 7 (87%) (%); Leucocytes, worst CTC Grade by cycle: All Grades (%) [2, 19]: 3 (75%) (%); Leucocytes, worst CTC Grade by cycle: Grade 1-2 (%) [2, 19]: 3 (75%) (%); Leucocytes, worst CTC Grade by cycle: All Grades (%) [2, 20]: 4 (100%) (%); Leucocytes, worst CTC Grade by cycle: Grade 1-2 (%) [2, 20]: 4 (100%) (%); Leucocytes, worst CTC Grade by cycle: All Grades (%) [2, 21]: 3 (75%) (%); Leucocytes, worst CTC Grade by cycle: Grade 1-2 (%) [2, 21]: 3 (75%) (%); Leucocytes, worst CTC Grade by cycle: All Grades (%) [2, 22]: 2 (67%) (%); Leucocytes, worst CTC Grade by cycle: Grade 1-2 (%) [2, 22]: 2 (67%) (%); Leucocytes, worst CTC Grade by cycle: All Grades (%) [2, 23]: 1 (100%) (%); Leucocytes, worst CTC Grade by cycle: Grade 1-2 (%) [2, 23]: 1 (100%) (%); antitumor activity ([3]; after i.p., i.v. or oral administration, murine leukemias, solid murine and human tumor models): good antitumor activity; effective oral doses, fold higher than the effective i.v. doses ([3]; animal tumor models, oral vs i.v.): 1.3-2 fold; optimal i.v. dose, fold less than that of doxorubicin ([3]; in vivo, i.v.): at least 80 fold; activity in vitro and in vivo [4]: active; cross-resistance [5]: No cross-resistance; lesion area reduction versus baseline (human liver tumor; 200 mcg/m^2 q6wk, one patient AJCC stage II (confirmed PR), CT scan 5 weeks after going off study): 70%; tumor shrinkage versus baseline (human liver tumor; 200 mcg/m^2 q6wk, one patient AJCC stage II (confirmed PR), after 2 cycles): 64%; duration of PR in the original lesion (right lobe) (human liver tumor; 200 mcg/m^2 q8wk, one patient AJCC stage II (unconfirmed PR)): ≥ 12 months; decrease in tumor area versus baseline (human liver tumor; 200 mcg/m^2 q8wk, one patient AJCC stage II (unconfirmed PR), after 2 cycles): 85.9%; shrinkage of measurable lesion versus baseline (human liver tumor; 200 mcg/m^2 q8wk, one patient AJCC stage III (confirmed PR), after 1 cycle): 78.45%; lesion area reduction versus baseline (human liver tumor; 200 mcg/m^2 q8wk, one patient AJCC stage III (confirmed PR), second cycle): 95.3%; duration of PR (human liver tumor; 600 mcg/m^2 q6wk, one patient AJCC stage III (confirmed PR), 5 cycles): ≥ 8 months; reduction of measurable lesion area versus baseline (human liver tumor; 600 mcg/m^2 q6wk, one patient AJCC stage III (confirmed PR), cycle 3): 78.2%; reduction of the measurable lesion area (human liver tumor; 600 mcg/m^2 q6wk, one patient AJCC stage III (confirmed PR), first treatment cycle): 48.4%; duration of PR in the original lesion (right lobe) (human liver tumor; 600 mcg/m^2 q8wk, one patient stage III (unconfirmed PR)): about 3 months; decrease of lesion area versus baseline (human liver tumor; 600 mcg/m^2 q8wk, one patient stage III (unconfirmed PR), after one cycle): 54.3%; decrease in tumor area versus baseline, perfused right lobe (human liver tumor; 600 mcg/m^2 q8wk, one patient stage III (unconfirmed PR), cycle 2): 68.2%; decrease of the tumor area versus baseline (human liver tumor; 800 mcg/m^2 q8wk, one patient AJCC stage III (unconfirmed PR), after 3 cycles): 52%; confirmed PR out of treated patients (human liver tumor; q6wk schedule): two confirmed PR out of 11 treated patients; confirmed PR out of treated patients (human liver tumor; q8wk schedule): one confirmed PR out of 13 treated patients; Platelets, worst CTC Grade by cycle: All Grades (%) [6, 7]: 10 (91%) (%); Platelets, worst CTC Grade by cycle: Grade 1-2 (%) [6, 7]: 10 (91%) (%); Platelets, worst CTC Grade by cycle: All Grades (%) [6, 8]: 4 (80%) (%); Platelets, worst CTC Grade by cycle: Grade 1-2 (%) [6, 8]: 4 (80%) (%); Platelets, worst CTC Grade by cycle: All Grades (%) [6, 9]: 6 (100%) (%); Platelets, worst CTC Grade by cycle: Grade 1-2 (%) [6, 9]: 6 (100%) (%); Platelets, worst CTC Grade by cycle: All Grades (%) [6, 10]: 5 (100%) (%)
